# pKd: −log10 of the molar value.
# Columns and labels:
# Test in all cases: Binding assays for FABP3, FABP4, FABP5 and FABP7
# [1] = target: Fatty acid-binding protein 5 (Homo sapiens, UniProt Q01469)
# Procedure: (§1) Binding assays for FABP3, FABP4, FABP5 and FABP7 were carried out by fluorescence titrations. His-tagged FABPs were bacterially expressed in E. coli, purified using Ni Sepharose beads, and the equilibrium dissociation constants (Kd) that characterize their interactions with different inhibitor compounds were measured by fluorescence competition assays. The method entails two steps as described in e.g., Lin, Q. et al., “Ligand selectivity of the peroxisome proliferator-activated receptor alpha,” Biochemistry 38, 185-190, doi:10.1021/bi9816094 [pii](1999). In the first step, Kd for the association of the protein with the fluorescent fatty acid probe ANS was measured. Protein (2 μM) was titrated with ANS from a concentrated solution in DMSO. Ligand binding was monitored by following the increase in the fluorescence of the ligand upon binding to the protein, and Kd for the association of ANS with the each FABP was computed from titration curves as described in e.g., Norris, A. W. & Li, E., “Fluorometric titration of the CRABPs,” Methods Mol Biol 89, 123-139 (1998)). In the second step, Kds for binding of non-fluorescent ligands were measured by monitoring their ability to displace ANS in the binding pocket of the protein.
# [2] = target: Fatty acid-binding protein, adipocyte (Homo sapiens, UniProt P15090)
# Procedure: as §1
# [3] = target: Fatty acid-binding protein, brain (FABP7) (Homo sapiens, UniProt O15540)
# Procedure: as §1
# [4] = target: Fatty acid-binding protein, heart (Homo sapiens, UniProt P05413)
# Procedure: as §1
# Fatty acid-binding protein, heart, sequence (P05413 whole entry): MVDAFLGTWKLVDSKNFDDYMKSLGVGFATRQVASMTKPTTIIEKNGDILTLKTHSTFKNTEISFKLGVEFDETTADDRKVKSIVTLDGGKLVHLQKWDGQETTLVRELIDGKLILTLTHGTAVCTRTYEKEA
# Fatty acid-binding protein, brain (FABP7), sequence (O15540 whole entry): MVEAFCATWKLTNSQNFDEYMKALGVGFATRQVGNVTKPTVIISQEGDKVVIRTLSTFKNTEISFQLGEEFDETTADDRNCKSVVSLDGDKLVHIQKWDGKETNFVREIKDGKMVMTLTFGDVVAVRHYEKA
# Fatty acid-binding protein 5, sequence (Q01469 whole entry): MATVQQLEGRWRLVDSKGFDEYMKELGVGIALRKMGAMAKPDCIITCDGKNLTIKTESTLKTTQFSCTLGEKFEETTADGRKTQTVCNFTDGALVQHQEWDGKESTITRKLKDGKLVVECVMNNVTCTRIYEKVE
# Fatty acid-binding protein, adipocyte, sequence (P15090 whole entry): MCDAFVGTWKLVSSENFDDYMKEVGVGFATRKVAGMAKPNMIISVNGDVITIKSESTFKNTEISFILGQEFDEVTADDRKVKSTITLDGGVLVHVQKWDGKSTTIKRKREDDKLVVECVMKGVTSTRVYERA
smiles,measurement,setting,value
"CC(C)Oc1nc(NC(=O)CC(C)(C)CC(=O)O)c(Cl)cc1Cl [US20250325529, ID PD154]",pKd,[1],7.96
same,pKd,[2],7.85
same,pKd,[3],7.37
same,pKd,[4],7.22
